Measured values: ChEMBL document CHEMBL1201862, “PubChem BioAssay data set” (2004)
Active and inactive are the calls of the source.

Experiments:
[1] = target: Cytochrome P450 2C9 (Homo sapiens, UniProt P11712)
[2] = inhibitors of firefly luciferase expression or activity, dose response, H4 neuroglioma cells, luminescence (AID 1990); format: functional, cell-based
[3] = cells; format: functional, cell-based
[4] = Luminescence Cell-Based Dose Response HTS to Identify Inhibitors of 5'UTR Stem-Loop Driven Prion Protein mRNA Translation in H4 Neuroglioblastoma Cells. [Related pubchem assays: 1827 (Project Summary), 1813 (Primary HTS)]; format: functional
[5] = inhibitors of SNCA 5'UTR-driven reporter translation, confirmation, H4 neuroglioma cells, luminescence (AID 1988); format: functional, cell-based
[6] = cells; format: functional, cell-based; remark: listed apart in the source
[7] = Luminescence Cell-Based Dose Retest to Confirm Inhibitors of Cancer Stem Cells. [Related pubchem assays (depositor defined):AID2717, AID2721]; format: functional; conditions: Homo sapiens
[8] = system: INS1; assay: beta cell apoptosis inhibitors, cytokine rescue, dose response, luminescence, retest (AID 449756); format: functional, cell-based; conditions: Rattus norvegicus;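 also: cell death triggered by IL-1 beta plus TNF-alpha plus IFN-gamma mixture; protective hits raise ATP signal compared with cytokine alone wells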
[9] = Shn3 3'UTR reporter inhibitors, dose response, cell-based, Clone20 osteoblasts, firefly luciferase, cherry-picked (AID 624132); format: functional;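 also: firefly luciferase luminescence from reporter carrying the Shn3 3'UTR in osteoblasts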
[10] = HepG2 cell cytotoxicity, dose response, cytotoxicity control for Shn3 inhibitor project, CellTiter-Glo, cherry-picked (AID 624134); format: functional, cell-based
[11] = control 3'UTR Renilla luciferase suppression, dose response, counter-screen for Shn3 inhibitor project, cell-based, Clone20-Shn3RL, cherry-picked (AID 624133); format: functional
[12] = NIH-3T3 fibroblast cytotoxicity, dose response, cytotoxicity control, cell-based, fluorescence, Alamar Blue, secondary assay (AID 2327); format: functional;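 also: NIH-3T3 mouse fibroblasts cultured with fluconazole at 8 µg/mL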
[13] = C. albicans growth with fluconazole, confirmation, fluorescence, retest (AID 2467); format: functional, cell-based
[14] = target: Cytochrome P450 2C19 (Homo sapiens, UniProt P33261); assay: Cytochrome panel assay with activity outcomes. Panel member name: p450-cyp2c19 Compounds with AC50 equal or less than 10 uM are considered active; format: functional
[15] = system: Vero; assay: cells; format: functional; conditions: Chlorocebus sabaeus
[16] = target: Cytochrome P450 2D6 (Homo sapiens, UniProt P10635);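 also: CYP2D6 member of a cytochrome P450 panel assay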
[17] = target: T1, Short transient receptor potential channel 4 (Mus musculus, UniProt Q9QUQ5); assay: mouse TRPC4 channel activators, dose response, cell-based, HEK293 TRPC4/mu-opioid, Fluo-4 calcium (AID 434937); format: functional
T1 sequence (Q9QUQ5 whole entry): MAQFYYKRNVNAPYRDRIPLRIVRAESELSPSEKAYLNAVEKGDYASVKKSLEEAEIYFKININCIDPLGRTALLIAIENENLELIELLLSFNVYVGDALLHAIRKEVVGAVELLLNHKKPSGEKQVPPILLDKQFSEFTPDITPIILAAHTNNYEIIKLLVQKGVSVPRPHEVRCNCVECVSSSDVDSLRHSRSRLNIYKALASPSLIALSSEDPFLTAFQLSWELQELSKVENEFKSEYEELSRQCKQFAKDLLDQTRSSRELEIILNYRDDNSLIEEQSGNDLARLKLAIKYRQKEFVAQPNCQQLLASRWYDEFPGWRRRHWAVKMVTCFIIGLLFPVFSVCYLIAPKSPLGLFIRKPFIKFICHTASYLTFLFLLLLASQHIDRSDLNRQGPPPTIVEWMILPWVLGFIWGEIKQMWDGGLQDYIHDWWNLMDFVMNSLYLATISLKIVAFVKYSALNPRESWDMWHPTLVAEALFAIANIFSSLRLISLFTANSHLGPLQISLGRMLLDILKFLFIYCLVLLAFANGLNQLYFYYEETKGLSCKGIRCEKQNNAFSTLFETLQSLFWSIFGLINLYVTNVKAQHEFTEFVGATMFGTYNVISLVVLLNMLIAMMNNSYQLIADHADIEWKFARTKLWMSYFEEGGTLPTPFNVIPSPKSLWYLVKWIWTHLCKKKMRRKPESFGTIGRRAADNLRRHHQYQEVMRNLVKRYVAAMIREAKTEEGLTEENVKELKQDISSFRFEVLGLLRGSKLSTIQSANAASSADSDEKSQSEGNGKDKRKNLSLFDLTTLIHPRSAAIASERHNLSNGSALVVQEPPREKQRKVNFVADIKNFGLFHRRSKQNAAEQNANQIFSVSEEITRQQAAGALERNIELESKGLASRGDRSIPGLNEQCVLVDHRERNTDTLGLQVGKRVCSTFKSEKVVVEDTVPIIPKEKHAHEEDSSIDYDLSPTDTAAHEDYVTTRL

[18] = target: Heat shock protein HSP 90-alpha (Homo sapiens, UniProt P07900); format: functional, organism-based
[19] = target: T2, Polyadenylate-binding protein 1 (Homo sapiens, UniProt P11940); assay: PABP1 MLLE–PAM2 interaction inhibitors, dose response, miRNA deadenylation inhibitor project, biochemical, fluorescence polarization, Cy5-PAM2 peptide, secondary (AID 602260); format: functional; conditions: read-out: IC50_Mean
[20] = target: T2, Polyadenylate-binding protein 1; assay: PABP1 MLLE–PAM2 binding inhibitor potency, dose response, biochemical, fluorescence polarization, FITC-PAM2 peptide (AID 602259); format: functional; conditions: read-out: IC50_Mean
[21] = inhibitors of intracellular T. cruzi replication, confirmation, NIH3T3 host cells, beta-gal luminescence (AID 2044); format: functional, cell-based;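 also: intracellular parasites grown in NIH/3T3 mouse fibroblasts as host cells; luminescent beta-galactosidase reporter signal from transgenic T. cruzi replicating inside host cells; inhibitors lower the luminescence signal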
[22] = cytotoxicity toward NIH3T3 fibroblasts, dose response, counter-screen, cell-based, ATP luminescence, mouse fibroblasts (AID 2010); format: functional;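 also: cells exposed to compound for about 90 hours before reading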
[23] = system: Streptococcus sp. 'group A'; assay: growth inhibition of control SK(-) GAS strain, dose response, counter-screen for streptokinase expression inhibitor project, luminescence, kanamycin, BacTiterGlo, confirmation (AID 1900); format: functional, organism-based
[24] = system: H4; assay: Luminescence Cell-Based Dose Response HTS to Identify Activators of 5'UTR Stem-Loop Driven Prion Protein mRNA Translation in H4 Neuroglioblastoma Cells. [Related pubchem assays: 1829 (Project Summary), 1814 (Primary HTS)]; format: functional; conditions: Homo sapiens
[25] = target: T3, Streptokinase A (Streptococcus pyogenes serotype M1, UniProt P10520); assay: S. pyogenes streptokinase expression inhibitors, potency, dose response, plasminogen activation absorbance, OD405 (AID 1914); format: functional, Streptococcus pyogenes M1 GAS;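 also: secreted streptokinase activity via plasminogen activation per viability signal from cell pellet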
T3 sequence (P10520 whole entry): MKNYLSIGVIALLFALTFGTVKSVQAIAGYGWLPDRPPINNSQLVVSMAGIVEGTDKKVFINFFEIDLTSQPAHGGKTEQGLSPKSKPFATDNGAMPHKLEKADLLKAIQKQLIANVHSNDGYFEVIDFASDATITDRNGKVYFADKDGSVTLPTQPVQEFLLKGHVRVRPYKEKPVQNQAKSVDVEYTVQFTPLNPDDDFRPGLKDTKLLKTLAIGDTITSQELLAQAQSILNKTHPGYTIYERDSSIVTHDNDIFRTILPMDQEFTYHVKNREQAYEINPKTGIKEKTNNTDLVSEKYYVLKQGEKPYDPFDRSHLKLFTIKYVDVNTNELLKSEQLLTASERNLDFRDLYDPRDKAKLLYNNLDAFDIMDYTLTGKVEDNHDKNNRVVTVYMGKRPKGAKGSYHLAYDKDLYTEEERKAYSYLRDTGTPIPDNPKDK

[26] = system: Streptococcus; assay: Group A Streptococcus viability loss, dose response, counter-screen for streptokinase expression inhibitor project, luminescence, BacTiterGlo (AID 1915); format: functional, organism-based;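 also: potency for reduction of bacterial viability or growth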

Cytochrome P450 2C9, sequence (P11712 whole entry): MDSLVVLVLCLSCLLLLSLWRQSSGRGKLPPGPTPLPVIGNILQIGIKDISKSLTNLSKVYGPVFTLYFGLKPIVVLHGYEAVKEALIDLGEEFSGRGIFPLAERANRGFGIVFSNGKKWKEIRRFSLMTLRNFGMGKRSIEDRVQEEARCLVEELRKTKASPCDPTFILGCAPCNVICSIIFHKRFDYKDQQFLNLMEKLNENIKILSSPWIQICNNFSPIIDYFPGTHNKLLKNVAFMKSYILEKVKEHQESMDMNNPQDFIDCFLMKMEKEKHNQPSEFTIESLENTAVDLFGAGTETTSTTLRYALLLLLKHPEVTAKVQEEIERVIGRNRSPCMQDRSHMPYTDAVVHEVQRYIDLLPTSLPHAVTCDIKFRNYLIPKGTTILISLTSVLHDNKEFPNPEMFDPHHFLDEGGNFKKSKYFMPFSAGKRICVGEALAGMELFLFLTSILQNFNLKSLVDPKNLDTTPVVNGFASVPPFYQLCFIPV
T2 sequence (P11940 whole entry): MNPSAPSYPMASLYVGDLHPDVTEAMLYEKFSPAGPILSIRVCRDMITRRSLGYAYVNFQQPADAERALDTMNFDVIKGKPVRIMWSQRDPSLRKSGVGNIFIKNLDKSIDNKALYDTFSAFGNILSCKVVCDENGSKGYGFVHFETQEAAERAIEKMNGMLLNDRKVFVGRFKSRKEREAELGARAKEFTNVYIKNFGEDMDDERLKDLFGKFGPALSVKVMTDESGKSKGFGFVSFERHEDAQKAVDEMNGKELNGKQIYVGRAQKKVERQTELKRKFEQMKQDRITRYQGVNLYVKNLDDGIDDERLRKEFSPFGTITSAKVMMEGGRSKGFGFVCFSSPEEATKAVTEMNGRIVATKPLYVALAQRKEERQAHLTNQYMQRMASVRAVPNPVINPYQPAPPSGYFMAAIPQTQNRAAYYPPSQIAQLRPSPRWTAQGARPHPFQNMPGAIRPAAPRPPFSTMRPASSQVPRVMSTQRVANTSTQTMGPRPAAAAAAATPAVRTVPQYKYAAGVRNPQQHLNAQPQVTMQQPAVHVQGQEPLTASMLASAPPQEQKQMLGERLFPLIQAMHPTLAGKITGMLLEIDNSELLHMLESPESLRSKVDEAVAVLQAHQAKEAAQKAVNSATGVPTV
Cytochrome P450 2C19, sequence (P33261 whole entry): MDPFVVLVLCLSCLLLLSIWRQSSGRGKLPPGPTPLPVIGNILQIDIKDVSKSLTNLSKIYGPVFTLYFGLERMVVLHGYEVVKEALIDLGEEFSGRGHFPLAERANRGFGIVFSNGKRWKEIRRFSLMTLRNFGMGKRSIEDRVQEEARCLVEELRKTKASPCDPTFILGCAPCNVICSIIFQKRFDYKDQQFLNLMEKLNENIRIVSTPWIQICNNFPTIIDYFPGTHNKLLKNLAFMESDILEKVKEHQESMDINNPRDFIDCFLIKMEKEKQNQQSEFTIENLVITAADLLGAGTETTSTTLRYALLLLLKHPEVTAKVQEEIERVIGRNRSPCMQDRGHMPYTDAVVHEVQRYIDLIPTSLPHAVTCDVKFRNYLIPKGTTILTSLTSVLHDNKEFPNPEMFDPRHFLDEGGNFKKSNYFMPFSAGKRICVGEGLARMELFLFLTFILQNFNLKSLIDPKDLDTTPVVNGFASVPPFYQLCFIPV
Cytochrome P450 2D6, sequence (P10635 whole entry): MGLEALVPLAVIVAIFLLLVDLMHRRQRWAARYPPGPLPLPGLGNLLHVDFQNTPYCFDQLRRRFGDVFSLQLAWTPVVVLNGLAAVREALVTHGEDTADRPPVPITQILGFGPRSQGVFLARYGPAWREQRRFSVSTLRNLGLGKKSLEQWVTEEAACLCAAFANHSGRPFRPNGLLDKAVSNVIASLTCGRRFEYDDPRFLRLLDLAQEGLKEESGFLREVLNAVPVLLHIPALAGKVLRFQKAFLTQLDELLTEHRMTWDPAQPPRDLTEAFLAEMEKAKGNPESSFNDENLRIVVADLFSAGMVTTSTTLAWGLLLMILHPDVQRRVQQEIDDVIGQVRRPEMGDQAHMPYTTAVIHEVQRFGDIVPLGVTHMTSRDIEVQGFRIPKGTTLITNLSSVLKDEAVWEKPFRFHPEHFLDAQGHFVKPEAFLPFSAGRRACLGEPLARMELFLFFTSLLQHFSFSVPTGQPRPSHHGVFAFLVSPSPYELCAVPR

CS(=O)(=O)c1ccc(Cn2c3c(c4cc(F)cc(F)c42)CCC[C@H]3CC(=O)O)cc1
AC50 [1]: inconclusive

CCOC(=O)c1cnc(-n2nc(C)cc2C)nc1NNc1nc(-c2ccccc2)cc(-c2ccccc2)n1
EC50 [2]: 8.48 µM (active)
EC50 [3]: > 350 µM (not active)
EC50 [4]: 12.6 µM (active)
EC50 [5]: 8.83 µM (active)
EC50 [6]: > 350 µM (not active)
AC50 [7]: 1.88 µM (active)
AC50 [8]: 2.69 µM (active)
AC50 [9]: 3.84 µM (active)
AC50 [10]: 48.5 µM (active)
AC50 [11]: 7.39 µM (active)

c1ccc(-c2ccc3c(c2)c2c4n3CCN=C4CCC2)cc1
EC50 [12]: 50.1 µM (active)
EC50 [13]: > 38 µM (not active)
AC50 ([14]; read-out: AC50): 31.6 µM (inconclusive)
CC50 [15]: 23.6 µM (active)

COC(=O)CN1CN(c2ccccc2)C2(CCN(Cc3ccc4ccccc4c3)CC2)C1=O
AC50 [16]: 20 µM (inconclusive)
AC50 [1]: inconclusive

CCOC(=O)C1(CCc2ccccc2)CCN(Cc2csc(C(C)=O)c2)CC1
EC50 [17]: 0.841 µM (active)

Nc1nc(N)c2nc(CNc3ccc(C(=O)N[C@H](CCC(=O)O)C(=O)O)cc3)cnc2n1
AC50 [1]: inconclusive

Cc1cc2cc(CNC(=O)c3ccc(C)c([N+](=O)[O-])c3)ccc2[nH]1
AC50 [18]: 11 µM (active)
IC50 [19]: > 66 µM (inactive)
IC50 [20]: > 66 µM (inactive)

Cc1ccc(C)c(OCCCCn2ccnc2)c1
EC50 [21]: 2.04 µM (active)
EC50 [22]: > 60 µM (not active)
EC50 [17]: 4.73 µM (active)

CCCC1COC(Cn2cncn2)(c2ccc(C)cc2)O1 (configuration not stated)
AC50 [18]: 0.73 µM (active)

CCCN(CCC)CCCNc1ccc2nnc(-c3ccc(F)cc3)n2n1
EC50 [17]: 0.596 µM (active)

CC(C)c1ccc(-c2cc(C(=O)N3N=C(C(F)F)CC3(O)C(F)F)c3ccccc3n2)cc1 (configuration not stated)
EC50 [23]: 3.3 µM (active)
EC50 [24]: 10 µM (active)
EC50 [25]: > 150 µM (not active)
EC50 [21]: 3.4 µM (active)
EC50 [22]: > 60 µM (not active)
EC50 [26]: 4.31 µM (active)
AC50 [7]: 4.37 µM (active)
AC50 [18]: 4.06 µM (active)

C[C@@H]1CCC[C@H](C)N1
AC50 [14]: inconclusive
AC50 [1]: inconclusive
